# Test results reported in patent US12377077B2, “Methods and formulations to treat mitochondrial dysfunction” (The Board of Trustees of the Leland Stanford Junior …, priority 2018, dated 2025).
# Entries after “also recorded” stand apart in the source; their conditions may differ.
# How the values were obtained:
# pAMPK [1] = test: pAMPK western blot after siRNA knockdown of PRKAA1 in COX10 deficient fibroblasts; type: cell-based, human; conditions: siAMPK+PT1 compared to siCNT+PT1
# Procedure: Methods: Western blotting was performed to identify pAMPK levels in cells treated with PT1. Cells were lysed with RIPA buffer supplemented with Na-Orthovanadate, PMSF, and Protease Inhibitor cocktail. Whole cell extracts were fractionated by SDS-PAGE and transferred to a polyvinylidene difluoride membrane using a transfer apparatus according to the manufacturer's protocols (Bio-Rad). After incubation with 5% nonfat milk in TBST (10 mM Tris, pH 8.0, 150 mM NaCl, 0.5% Tween 20) for 60 min, the membrane was washed once with TBST and incubated with antibodies against AMPK (1:1,000), pAMPK (1:1,000), actin (1:10,000) at 4° C. overnight. […]
# To test whether the cellular response to PT1 is a result of AMPK activation itself, or is merely a result of nonspecific interactions, an siRNA knockdown strategy was used. siRNA for PRKAA1 (s101) and a negative control (Life Technologies) were incubated with Hiperfect reagent (Qiagen) in media containing DMEM, 1% Penicillin-Streptomycin (10,000 U/mL) (Life Technologies), 1% glutaMAX (Life Technologies) but no serum and allowed to complex for 10 min at room temperature. […] At the end of the incubation period, the cells were analyzed for levels of AMPK and pAMPK by western blot analysis (see protocol above) or incubated for six additional days with PT1 (or DMSO as untreated control) and assessed for viability by Calcein AM. […]
# ischemic stroke model = test: Ischemic stroke model, transient middle cerebral artery occlusion, TTC staining; type: in vivo, mice; conditions: PT1 100 mg/kg IP vs vehicle
# Procedure: Methods: To generate an ischemic stroke model, ischemic lesions were induced by transiently occluding the middle cerebral artery for 45 minutes, followed by reperfusion. Mice were then injected intraperitoneally with either 100 mg/kg of PT1 or vehicle in two doses, 1 hour and 24 hours post-occlusion, and sacrificed one hour later for terminal tissue collection. Isolated brains were placed in cold saline for 20 minutes, sliced in seven coronal slices (2 mm thick), and stained in a 1.0% 2,3,5-triphenyltetrazolium chloride (TTC) solution in saline at 37° C. for 30 minutes. The stained brain tissues were fixed in 10% formalin in phosphate-buffered saline. The images were captured using a CCD camera (Panasonic Corporation, Japan) and the unstained damaged areas were defined as infarcted tissue and were quantified using Image Pro Plus 4.1 software (Media Cybernetics, Silver Spring, MD).
# pAMPK [2] = test: pAMPK western blot time course in SURF1 deficient fibroblasts; type: cell-based, human
# Procedure: Methods: Western blotting was performed to identify pAMPK levels in cells treated with PT1. Cells were lysed with RIPA buffer supplemented with Na-Orthovanadate, PMSF, and Protease Inhibitor cocktail. Whole cell extracts were fractionated by SDS-PAGE and transferred to a polyvinylidene difluoride membrane using a transfer apparatus according to the manufacturer's protocols (Bio-Rad). After incubation with 5% nonfat milk in TBST (10 mM Tris, pH 8.0, 150 mM NaCl, 0.5% Tween 20) for 60 min, the membrane was washed once with TBST and incubated with antibodies against AMPK (1:1,000), pAMPK (1:1,000), actin (1:10,000) at 4° C. overnight. Membranes were washed three times for 5 min and incubated with a 1:10,000 dilution of horseradish peroxidase-conjugated anti-mouse or anti-rabbit antibodies for 2 h. Blots were washed with TBST three times and developed with the ECL system (Thermo Scientific) according to the manufacturer's protocols.
smiles,measurement,setting,value
Cc1cc(-c2ccc(C=C3SC(=S)N(c4ccc(Cl)c(C(=O)O)c4)C3=O)o2)c([N+](=O)[O-])cc1C [PT1],decrease in pAMPK levels,pAMPK [1],63%
same,percent of infarct tissue in brain,ischemic stroke model; FIG. 10A,marked improvement
same,infarcted regions in TTC-stained brain slices,"ischemic stroke model; FIGS. 10B-10C, 100 mg/kg",much lower amounts of ischemic tissue; also recorded: reduction in size of the infarcted regions
same,time of peak pAMPK levels post PT1 treatment,pAMPK [2],24 hours
same,time of return of pAMPK levels to baseline,pAMPK [2],48 hours
same,time by which pAMPK levels increase post PT1 treatment,pAMPK [2]; pAMPK normalized to actin,≤ 2 hours
